Consider 14 compounds from patent US11306073B2, “N-acylurea derivative and composition comprising same for prevention or treatment of cardiovascular disease” (KOREA UNIVERSITY RESEARCH AND BUSINESS FOUNDATION, priority 2016, dated 2022).

Some results are limits rather than exact numbers.

For experiment [1], the system named is CHO/αIIbβ3 cell line. The experiment is described as follows: Screening of talin antagonist candidates: binding of CHO/αIIbβ3 cells to fibrinogen-coated plate (CCK-8 readout). Type of experiment: cell-based. The settings on record: 0.2 mM of candidate; compared to a negative control; FIG. 2; read-out: inhibition of the binding between the CHO/αIIbβ3 cell line and fibrinogen. The protocol:
Cells expressing platelet integrin αIIbβ3 were incubated with 0.2 mM of candidates, and the binding between the cells and fibrinogen was verified according to the experimental method shown in FIG. 1. In FIG. 2, 0% is a negative control and represents the degree to which cells adhere to a surface coated with bovine serum albumin (BSA) instead of fibrinogen, and 100% is a positive control and represents the degree to which cells adhere to fibrinogen in the absence of any candidate. The ability of candidates to inhibit fibrinogen binding was normalized to 100%, and the mean and standard error of three experiments are graphically shown.
Platelets bind to fibrinogen present in blood and produce thrombi. This binding is mediated by integrin αIIbβ3 present in the platelet cell membrane, and this integrin binds to fibrinogen after being activated by talin. In order to enable high-throughput efficacy testing by simplifying this procedure into a cell line-based experiment, integrin αIIbβ3 was first stably expressed in the CHO cell line using lentivirus, thereby constructing a CHO/αIIbβ3 cell line. The constructed cell line was cultured in a fibrinogen-coated 96-well plate for 1 hour and washed, after which the amount of remaining cells was measured to evaluate the efficacy of a talin antagonist candidate. In this procedure, in order to measure the relative amount of the CHO/αIIbβ3 cell line remaining in the well due to binding to fibrinogen, a cell counting kit-8 (CCK-8) was used to measure the activity of dehydrogenase present in the remaining cells. When the activity of dehydrogenase appeared due to the presence of the cells, the color of CCK-8 changed from yellow to orange (FIG. 1). To measure the degree to which the color changed to orange, the absorbance at a wavelength of 450 nm was measured with a plate reader. This enabled easy, fast and reliable high-throughput screening.
To screen talin antagonist candidates, inhibition of the binding affinity between the CHO/αIIbβ3 cell line and fibrinogen was examined by the above-described efficacy testing method.
As a result, it was shown that compounds, including KCH-1420, KCH-1424, KCH-1510, KCH-1511, KCH-1512, KCH-1513, KCH-1516, KCH-1518, KCH-1521, KCH-1523, KCH-1526, KCH-1529, KCH-1530, and KCH-1542 inhibited the binding between the CHO/αIIbβ3 cell line and fibrinogen by at least 80% compared to a negative control (FIG. 2). […] In FIG. 3, like FIG. 2, cells expressing platelet integrin αIIbβ3 were incubated with varying concentrations of a candidate, and the binding between the cells and fibrinogen was examined. Cell adhesion on the Y-axis is the relative degree of cell-fibrinogen binding.

The target of experiment [2] is T1, talin protein (6×His-tagged F2F3 protein) (Homo sapiens, UniProt Q9Y490).
T1 construct: 6×His-tagged F2F3 protein containing F3 was isolated and purified; 6×His; made in house
T1 sequence (Q9Y490 196-405 limits assumed): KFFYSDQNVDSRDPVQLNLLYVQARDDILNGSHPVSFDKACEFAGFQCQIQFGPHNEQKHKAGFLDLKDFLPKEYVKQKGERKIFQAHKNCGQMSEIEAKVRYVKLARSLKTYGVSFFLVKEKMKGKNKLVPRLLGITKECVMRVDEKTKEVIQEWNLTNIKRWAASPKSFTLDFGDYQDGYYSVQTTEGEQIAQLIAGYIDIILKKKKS
The experiment is described as follows: Binding affinity between talin protein and candidate by surface plasmon resonance. The conditions noted are these: SPR, talin F2F3 immobilized on sensor chip; FIG. 4; read-out: affinity constant. Here is the method: To measure the binding affinity between the talin protein and a talin antagonist candidate, surface plasmon resonance spectroscopy was used. Specifically, a talin antagonist candidate was added to the talin protein immobilized on a sensor chip, and the affinity constant between the two substances was measured by surface plasmon resonance (hereinafter referred to as ‘SPR’) spectrometry.
Talin is divided into an N-terminal head domain and a C-terminal rod domain, and the head domain is further divided into four subdomains, F0, F1, F2 and F3. Among them, F3 is known as an integrin binding site. Thus, 6×His-tagged F2F3 protein containing F3 was isolated and purified. As a sensor chip for immobilizing the talin protein, HTEPBE10PO1 (Biorad) was used. SPR was measured using ProteON™ XPR36 (Biorad).
In general terms: Surface plasmon resonance follows binding to a sensor surface in real time, without labels.

For experiment [3], the system named is mouse blood platelets. Nature of the experiment: Platelet aggregation inhibitory effect using mouse platelets activated by thrombin. Type of experiment: cell-based. The settings on record: 0.2 mM compound, FIG. 5. The protocol:
It is well known that platelets bind to fibrinogen in blood and form thrombi, which leads to the contraction of intracellular skeletal muscle due to signaling after the binding between activated integrin a αIIbβ3 and fibrinogen. To achieve this thrombus formation in vitro, mouse blood platelets were isolated and thrombin known as a platelet activator was added thereto. As a result, as shown in the left photograph of FIG. 5, the platelets were aggregated. However, when platelets were treated with thrombin in combination with KCH-1513 or KCH-1521, it was observed that platelet aggregation that was increased by thrombin decreased when 0.2 mM of KCH-1513 (middle photograph) or the same concentration of KCH-1521 (right photograph) was added.

Consider `O=C(Cn1nnc(-c2ccccc2)n1)NC(=O)Nc1ccc(Oc2ccccc2)cc1` [KCH-1511, N-((4-phenoxyphenyl)carbamoyl)-2-(5-phenyl-2H-tetrazol-2-yl)acetamide], for which the inhibition at 200 µM in experiment [1] is not below 80%.

In the case of `O=C(COc1ccc2c(c1)OCO2)NC(=O)NCCc1c[nH]c2ccccc12` [KCH-1521], in experiment [1], the inhibition at 200 µM was not below 80%. The Kd in experiment [2] worked out at 0.271 mM. In addition, the “inhibition of thrombin-induced platelet aggregation” value in experiment [3] is given as “significantly inhibit platelet aggregation”.

On to `COc1ccc(NC(=O)NC(=O)COc2ccccc2OC)c(OC)c1` [KCH-1530, N-((2,4-dimethoxyphenyl)carbamoyl)-2-(2-methoxyphenoxy)acetamide], for which the inhibition at 200 µM in experiment [1] was not below 80%. For the compound `O=C(Cn1nnc(-c2ccccc2)n1)NC(=O)NCCC1=CNC2C=CC=CC12` (stereo not drawn) [KCH-1513, N-((2-(3a,7a-dihydro-1H-indol-3-yl)ethyl)carbamoyl)-2-(5-phenyl-2H-tetrazol-2-yl)acetamide], the inhibition at 200 µM in experiment [1] was not below 80%. Further, the Kd in experiment [2] was 9.33 mM. For the same compound, the “inhibition of thrombin-induced platelet aggregation” value in experiment [3] is “significantly inhibit platelet aggregation”. Regarding `COc1cc(NC(=O)NC(=O)COc2ccccc2OC)ccc1Br` [KCH-1526, N-((4-bromo-3-methoxyphenyl)carbamoyl)-2-(2-methoxyphenoxy)acetamide], the inhibition at 200 µM in experiment [1] is not below 80%. Still for that read-out and setting: in the case of `COc1ccccc1OCC(=O)NC(=O)NCCc1c[nH]c2ccccc12` [KCH-1529, N-((2-(1H-indol-3-yl)ethyl)carbamoyl)-2-(2-methoxyphenoxy)acetamide] it was not below 80%; in that of `CC(C)(C)OC(=O)N1CCN(CC(=O)NC(=O)Nc2ccccc2F)CC1` [KCH-1424, tert-butyl 4-(2-(3-(2-fluorophenyl)ureido)-2-oxoethyl)piperazine-1-carboxylate], not below 80%; in that of `O=C(Cn1nnc(-c2ccccc2)n1)NC(=O)Nc1ccccc1F` [KCH-1516, N-((2-fluorophenyl)carbamoyl)-2-(5-phenyl-2H-tetrazol-2-yl)acetamide], not below 80%. Consider `COc1ccc(NC(=O)NC(=O)COc2cccc(Br)c2)c(OC)c1` [KCH-1542, 2-(3-bromophenoxy)-N-((2,4-dimethoxyphenyl)carbamoyl)acetamide], for which the inhibition at 200 µM in experiment [1] is not below 80%. For `COc1ccc(CNC(=O)NC(=O)Cn2nnc(-c3ccccc3)n2)cc1` [KCH-1512, N-((4-methoxybenzyl)carbamoyl)-2-(5-phenyl-2H-tetrazol-2-yl)acetamide], in experiment [1], the inhibition at 200 µM was not below 80%. The same measure, in the same setting: to `COc1cc(NC(=O)NC(=O)COc2ccc3c(c2)OCO3)ccc1Br` [KCH-1518, 2-(benzo[d][1,3]dioxo1-5-yloxy)-N-((4-bromo-3-methoxyphenyl)carbamoyl) acetamide] belongs not below 80%; to `COc1cc(NC(=O)NC(=O)Cn2nnc(-c3ccccc3)n2)ccc1Br` [KCH-1510, N-((4-bromo-3-methoxyphenyl)carbamoyl)-2-(5-phenyl-2H-tetrazol-2-yl)acetamide], not below 80%; to `Cc1cccc(OCC(=O)NC(=O)Nc2ccccc2F)c1C` [KCH-1420, 2-(2,3-dimethylphenoxy)-N-((2-fluorophenyl)carbamoyl)acetamide], not below 80%. Same read-out and setting: to `O=C(COc1ccc2c(c1)OCO2)NC(=O)Nc1ccc(OCc2ccccc2)cc1` [KCH-1523, 2-(benzo[d][1,3]dioxol-5-yloxy)-N-((4-(benzyloxy)phenyl)carbamoyl) acetamide] belongs not below 80%.
